Measurements from PMC4802607, “Crystal structure and biochemical characterization of the recombinant ThBgl, a GH1 β-glucosidase overexpressed in Trichoderma harzianum under biomass degradation conditions” (Biotechnology for Biofuels, 2016).

Key:
[1] = molecular target: T1, rThBgl (Trichoderma harzianum, UniProt A0A127SA86); experiment: glucose tolerance of beta-glucosidase activity, […] glucose, triplicate; assay type: biochemical; settings: read-out: % activity at 300 mM
T1 construct: gene bgl; full-length GH1 beta-glucosidase, bgl gene 1398 bp, pET28a, E. coli Rosetta; N-terminal His6-tag cut with thrombin for assays

[2] = substrate: O=[N+]([O-])c1ccc(O[C@@H]2O[C@H](CO)[C@@H](O)[C@H](O)[C@H]2O)cc1; experiment: purified protein; settings: 100 mM sodium phosphate pH 6.0, 40 °C, 0-10 mM substrate, 10 min

Molecule | activity at 300000 µM [1] | Km [2]
OC[C@H]1OC(O)[C@H](O)[C@@H](O)[C@@H]1O (some centres unmarked) [glucose] | 50% | –
rThBgl (Trichoderma harzianum) (protein) MLPKDFQWGFATAAYQIEGAIDKDGRGPSIWDTFCAIPGKIADGTSGVTACDSYNRTAEDIALLKSLGAKSYRFSISWSRIIPKGGRDDPVNQLGIDHYAQFVDDLLEAGITPFITLFHWDLPEELHQRYGGLLNRTEFPLDFENYARVMFKALPKVRNWITFNEPLCSAIPGYGSGTFAPGRQSTTEPWIVGHNLLVAHGRAVKVYRDEFKDLNDGQIGIVLNGDFTYPWDSSDPLDREAAERRLEFFTAWYADPIYLGDYPASMRKQLGDRLPEFTPEEKAFVLGSNDFYGMNHYTSNYIRHRTSPATADDTVGNVDVLFYNKEGQCIGPETESSWLRPCPAGFRDFLVWISKRYNYPKIYVTENGTSLKGENDLPKEKILEDDFRVNYYNEYIRAMFTAATLDGVNVKGYFAWSLMDNFEWADGYVTRFGVTYVDYENGQQRFPKKSAKSLKPLFDELIAKE | – | 970 µM
